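Briefly, cells in 96-well plates were exposed to five compound concentrations for 48 h, and endpoints were estimated by linear interpolation. TGI: total growth inhibition.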
Experiments:
Assay in all cases: inhibition of tumour cell growth, NCI panel, 48 h
[1] = system: CCRF-CEM leukemia
[2] = system: MOLT-4 leukemia
[3] = system: OVCAR-8 ovarian
[4] = system: DU-145 prostate
[5] = system: HCC-2998 colon
[6] = system: SNB-78 CNS
[7] = system: NCI-H226 lung
[8] = system: LOX IMVI melanoma
[9] = system: TK-10 renal
[10] = system: HT29 colon
[11] = system: LXFL 529 NSCLC
[12] = system: KM12 colon
[13] = system: SN12C renal
[14] = system: SK-MEL-28 melanoma
[15] = system: UACC-62 melanoma
[16] = system: SNB-19 CNS
[17] = system: OVCAR-3 ovarian
[18] = system: SW-620 colon
[19] = system: SK-OV-3 ovarian
[20] = system: A549 NSCLC
[21] = system: XF 498 CNS
[22] = system: KM20L2 colon
[23] = system: SK-MEL-5 melanoma
[24] = system: SK-MEL-2 melanoma
[25] = system: SF-539 CNS
[26] = system: HCT-116 colon
[27] = system: RPMI-8226 leukemia
[28] = system: SF-295 CNS
[29] = system: M14 melanoma
[30] = system: U251 CNS
[31] = system: 786-0 renal
[32] = system: UO-31 renal
[33] = system: DLD-1 colon
[34] = system: SR leukemia
[35] = system: K-562 leukemia
[36] = system: HL-60(TB) leukemia
[37] = system: OVCAR-4 ovarian
[38] = system: HOP-92 NSCLC
[39] = system: M19-MEL melanoma
[40] = system: ACHN renal
[41] = system: EKVX NSCLC
[42] = system: SF-268 CNS
[43] = system: NCI-H23 lung
[44] = system: NCI-H522 lung
[45] = system: SNB-75 CNS
[46] = system: OVCAR-5 ovarian
[47] = system: MALME-3M melanoma
[48] = system: A498 renal
[49] = system: HOP-18 NSCLC
[50] = system: UACC-257 melanoma
[51] = system: HCT-15 colon
[52] = system: IGROV1 ovarian
[53] = system: HOP-62 NSCLC
[54] = system: CAKI-1 renal
[55] = system: COLO 205 colon
[56] = system: DMS 273 small cell lung
[57] = system: RXF 393 renal
[58] = system: NCI-H460 lung

Compound CC(=O)N/C=C/c1cc(O)ccc1O has a TGI [1] of 75.3 µM, a TGI [2] of 37.1 µM and a TGI [3] greater than 85.9 µM. The TGI [4] was greater than 100 µM, the TGI [5] was greater than 76.2 µM and the TGI [6] was greater than 71.8 µM. It also gave a TGI [7] greater than 77.4 µM, a TGI [8] of 45.6 µM and a TGI [9] of 54.5 µM. For the same compound, the TGI [10] was 48.6 µM, the TGI [11] was 29 µM and the TGI [12] was greater than 100 µM. It also gave a TGI [13] of 46.9 µM, a TGI [14] of 48.6 µM and a TGI [15] of 47.1 µM. It also gave a TGI [16] greater than 72.4 µM, a TGI [17] of 29.8 µM and a TGI [18] of 35.4 µM. For the same compound, the TGI [19] was greater than 70.6 µM, the TGI [20] was greater than 76.4 µM and the TGI [21] was 32.3 µM. For the same compound, the TGI [22] was greater than 67.7 µM, the TGI [23] was greater than 67.5 µM and the TGI [24] was 55.1 µM. The TGI [25] was greater than 66.5 µM, the TGI [26] was 47.4 µM and the TGI [27] was greater than 89.9 µM. The TGI [28] was 48.1 µM, the TGI [29] was 48.2 µM and the TGI [30] was greater than 68.6 µM. For the same compound, the TGI [31] was 48.1 µM, the TGI [32] was 46.2 µM and the TGI [33] was 48.2 µM. The TGI [34] was 70.5 µM, the TGI [35] was greater than 91.7 µM and the TGI [36] was 54 µM. It also gave a TGI [37] of 47.9 µM, a TGI [38] of 36.8 µM and a TGI [39] of 46.7 µM. The TGI [40] was 37.4 µM, the TGI [41] was greater than 73.6 µM and the TGI [42] was 49.8 µM. It also gave a TGI [43] of 56.1 µM, a TGI [44] of 7.19 µM and a TGI [45] greater than 81.9 µM. It also gave a TGI [46] of 38.1 µM, a TGI [47] greater than 60.6 µM and a TGI [48] of 98.1 µM. The TGI [49] was 35.2 µM, the TGI [50] was 47.9 µM and the TGI [51] was greater than 72.9 µM. For the same compound, the TGI [52] was greater than 68.1 µM, the TGI [53] was greater than 55.2 µM and the TGI [54] was 41.7 µM. The TGI [55] was 45.8 µM, the TGI [56] was greater than 100 µM and the TGI [57] was 49.3 µM. The TGI [58] was greater than 74.6 µM.

Reference: PubChem BioAssay (NCI)
